# Reference: ChEMBL document CHEMBL5126634, “Naturally Occurring Partially Reduced Perylenequinones from Fungi” (J Nat Prod, 2022)
# Key:
# MCF7 = test: Cytotoxicity against human MCF7 cells assessed as cell growth inhibition; assay type: functional, cell-based
# SF-268 = test: Cytotoxicity against human SF-268 cells assessed as cell growth inhibition; assay type: functional, cell-based
# L5178Y = test: Cytotoxicity against mouse L5178Y cells assessed as cell growth inhibition; assay type: functional, cell-based
# [1] = Cytotoxicity against human HeLa cells assessed as cell growth inhibition; assay type: toxicity, cell-based; details: read-out: ID50 (the source's name)
# NCI-H460 = test: Cytotoxicity against human NCI-H460 cells assessed as cell growth inhibition; assay type: functional, cell-based
# PC-3 = test: Cytotoxicity against human PC-3 cells assessed as cell growth inhibition; assay type: functional, cell-based
# HepG2 = test: Cytotoxicity against human HepG2 cells assessed as cell growth inhibition; assay type: functional, cell-based
# [2] = target: Telomerase reverse transcriptase (Homo sapiens, UniProt O14746); test: Inhibition of human telomerase
# Telomerase reverse transcriptase, sequence (O14746 whole entry): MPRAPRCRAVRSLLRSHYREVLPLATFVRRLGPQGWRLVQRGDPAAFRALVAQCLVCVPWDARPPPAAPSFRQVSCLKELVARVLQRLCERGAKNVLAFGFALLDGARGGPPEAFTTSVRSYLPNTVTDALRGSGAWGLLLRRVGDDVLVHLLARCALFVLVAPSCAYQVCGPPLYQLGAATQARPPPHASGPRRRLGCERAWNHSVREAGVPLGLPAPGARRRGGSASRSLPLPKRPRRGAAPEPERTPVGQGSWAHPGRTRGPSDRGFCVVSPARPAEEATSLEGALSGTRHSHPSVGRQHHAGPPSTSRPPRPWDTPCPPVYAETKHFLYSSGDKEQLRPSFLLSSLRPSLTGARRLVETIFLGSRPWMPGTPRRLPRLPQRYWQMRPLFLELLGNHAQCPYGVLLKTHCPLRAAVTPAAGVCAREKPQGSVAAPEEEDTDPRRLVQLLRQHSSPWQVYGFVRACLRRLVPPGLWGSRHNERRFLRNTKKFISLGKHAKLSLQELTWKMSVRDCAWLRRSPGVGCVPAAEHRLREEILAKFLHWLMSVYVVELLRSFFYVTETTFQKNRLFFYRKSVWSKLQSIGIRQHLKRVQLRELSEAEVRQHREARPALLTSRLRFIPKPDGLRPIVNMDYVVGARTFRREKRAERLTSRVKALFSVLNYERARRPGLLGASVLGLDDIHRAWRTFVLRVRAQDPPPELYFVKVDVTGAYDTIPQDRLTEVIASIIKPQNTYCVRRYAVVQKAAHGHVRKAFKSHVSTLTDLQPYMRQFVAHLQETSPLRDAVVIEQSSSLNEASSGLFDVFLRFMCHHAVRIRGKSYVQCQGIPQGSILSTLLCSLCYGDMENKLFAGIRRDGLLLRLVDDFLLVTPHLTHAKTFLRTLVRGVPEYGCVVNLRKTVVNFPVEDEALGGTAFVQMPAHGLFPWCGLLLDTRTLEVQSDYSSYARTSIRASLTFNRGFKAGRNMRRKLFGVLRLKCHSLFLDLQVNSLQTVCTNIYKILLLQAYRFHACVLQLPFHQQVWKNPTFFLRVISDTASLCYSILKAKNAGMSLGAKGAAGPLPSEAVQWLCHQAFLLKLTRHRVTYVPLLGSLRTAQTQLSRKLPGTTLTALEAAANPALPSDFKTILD
# Leishmania donovani = test: Antileishmanial activity against Leishmania donovani promastigotes assessed as parasite growth inhibition incubated for 72 hrs by Alamar blue assay; assay type: functional, organism-based
# [3] = Cytotoxicity against African green monkey Vero cells assessed as cell growth inhibition incubated for 48 hrs by neutral red dye based assay; assay type: toxicity; details: African green monkey (Chlorocebus sabaeus)
# Plasmodium falciparum [4] = test: Antimalarial activity against chloroquine resistant Plasmodium falciparum W2 assessed as parasite growth inhibition incubated for 72 hrs by Malstat reagent assay; assay type: functional, organism-based; details: W2, 72 h
# Plasmodium falciparum [5] = test: Antimalarial activity against chloroquine sensitive Plasmodium falciparum D6 assessed as parasite growth inhibition incubated for 72 hrs by Malstat reagent assay; assay type: functional, organism-based; details: D6, 72 h
# K562 = test: Cytotoxicity against human K562 cells assessed as cell growth inhibition; assay type: functional, cell-based
# Bel-7402 = test: Cytotoxicity against human Bel-7402 cells assessed as cell growth inhibition; assay type: functional, cell-based
# SGC-7901 = test: Cytotoxicity against human SGC-7901 cells assessed as cell growth inhibition; assay type: functional, cell-based
smiles,measurement,setting,value
O=C1CC[C@]2(O)c3c(ccc(O)c31)-c1ccc(O)c3c1[C@H]2[C@H]1O[C@H]1C3=O,IC50,MCF7,1.9 µM
same,IC50,SF-268,1.9 µM
same,IC50,L5178Y,6.2 µM
same,GI50,[1],0.5 µg/mL
same,IC50,NCI-H460,1.9 µM
same,IC50,PC-3,14.3 µM
same,IC50,HepG2,1.9 µM
O=C1C[C@H](O)[C@@H]2c3c(ccc(O)c31)-c1ccc(O)c3c1[C@@]2(O)C=CC3=O,IC50,MCF7,1.9 µM
same,IC50,SF-268,1.9 µM
same,IC50,[2],30 µM
same,IC50,NCI-H460,1.9 µM
same,IC50,HepG2,1.9 µM
O=C1C[C@@H](O)[C@]2(O)c3c(ccc(O)c31)-c1ccc(O)c3c1[C@@H]2[C@H]1O[C@@H]1[C@@H]3O,IC50,Leishmania donovani,2.5 µg/mL
O=C1C[C@H](O)[C@H]2c3c(ccc(O)c31)-c1ccc(O)c3c1[C@@]2(O)[C@H](O)CC3=O,IC50,Leishmania donovani,4.4 µg/mL
same,IC50 at 48 h,[3],9.8 µM
same,IC50,Plasmodium falciparum [4],3.6 µg/mL
same,IC50,Plasmodium falciparum [5],4.2 µg/mL
O=C1CC[C@]2(O)c3c(ccc(O)c31)-c1ccc(O)c3c1[C@H]2[C@H]1O[C@H]1[C@@H]3O,IC50,Leishmania donovani,3.1 µg/mL
O=C1C[C@H](O)[C@@H]2c3c(ccc(O)c31)-c1ccc(O)c3c1[C@@]2(O)[C@H](O)CC3=O,IC50,K562,53.5 µM
CO[C@H]1CC(=O)c2c(O)ccc3c2[C@@]1(O)[C@@H]1c2c-3ccc(O)c2[C@@H](O)[C@@H]2O[C@@H]21,IC50,Leishmania donovani,1.4 µg/mL
same,IC50 at 48 h,[3],12.5 µM
same,IC50,Plasmodium falciparum [4],2.5 µg/mL
same,IC50,Plasmodium falciparum [5],3.2 µg/mL
O=C1CCc2c3c4c(cc(O)cc4c4ccc(O)c1c24)[C@H](O)CC3,IC50,Bel-7402,40.9 µM
same,IC50,K562,83.1 µM
same,IC50,SGC-7901,27.5 µM
O=C1C[C@H](O)[C@@H]2c3c(ccc(O)c31)-c1ccc(O)c3c1[C@@]2(O)CCC3=O [ALTERTOXIN I],GI50,[1],20 µg/mL
